Legend:
[1] = system: Human immunodeficiency virus 1; assay: Antiviral activity against HIV-1 K103N mutant infected in human MT4 cells assessed as reduction in viral replication by MTT assay; type: functional, organism-based; conditions: Human immunodeficiency virus 1, K103N mutant
[2] = system: Human immunodeficiency virus 1; assay: Antiviral activity against HIV-1 F227L-V106A mutant infected in human MT4 cells assessed as reduction in viral replication by MTT assay; type: functional, organism-based; conditions: Human immunodeficiency virus 1, F227L-V106A mutant
[3] = system: Human immunodeficiency virus 1; assay: Antiviral activity against HIV-1 ROD infected in human MT4 cells assessed as reduction in viral replication by MTT assay; type: functional, organism-based
[4] = Selectivity index, ratio of CC50 for cytotoxicity against human MT4 cells to EC50 of Anti-HIV activity against HIV-1 IIIB infected in human MT4 cells; type: toxicity, cell-based; conditions: read-out: Ratio CC50/EC50
[5] = system: Human immunodeficiency virus 1; assay: Antiviral activity against HIV-1 Y181C mutant infected in human MT4 cells assessed as reduction in viral replication by MTT assay; type: functional, organism-based; conditions: Human immunodeficiency virus 1, Y181C mutant
[6] = Cytotoxicity against human MT4 cells assessed as reduction on cell growth by MTT assay; type: toxicity, cell-based
[7] = system: Human immunodeficiency virus 1; assay: Antiviral activity against HIV-1 Y188L mutant infected in human MT4 cells assessed as reduction in viral replication by MTT assay; type: functional, organism-based; conditions: Human immunodeficiency virus 1, Y188L mutant
[8] = target: Human immunodeficiency virus type 1 reverse transcriptase (Human immunodeficiency virus 1, UniProt Q72547); assay: Inhibition of wild type HIV-1 Reverse transcriptase
[9] = system: Human immunodeficiency virus 1; assay: Antiviral activity against HIV-1 E138K mutant infected in human MT4 cells assessed as reduction in viral replication by MTT assay; type: functional, organism-based; conditions: Human immunodeficiency virus 1, E138K mutant
[10] = system: Human immunodeficiency virus 1; assay: Antiviral activity against HIV-1 IIIB infected in human MT4 cells assessed as reduction in viral replication by MTT assay; type: functional, organism-based; conditions: Human immunodeficiency virus 1, IIIB
[11] = system: Human immunodeficiency virus 1; assay: Antiviral activity against HIV-1 L100I mutant infected in human MT4 cells assessed as reduction in viral replication by MTT assay; type: functional, organism-based; conditions: Human immunodeficiency virus 1, L100I mutant
[12] = system: Human immunodeficiency virus 1; assay: Antiviral activity against HIV-1 K103N-Y181C mutant infected in human MT4 cells assessed as reduction in viral replication by MTT assay; type: functional, organism-based; conditions: Human immunodeficiency virus 1, K103N-Y181C mutant

SMILES | EC50 [1] | EC50 [2] | EC50 [3] | selectivity ratio [4] | EC50 [5] | CC50 [6] | EC50 [7] | IC50 [8] | EC50 [9] | EC50 [10] | EC50 [11] | EC50 [12]
Cn1c(Cn2ccc(C(F)(F)F)c(Oc3c(F)cc(-c4cccc(F)c4)cc3F)c2=O)n[nH]c1=O | 6.34 µM | > 35 µM | > 35 µM | 4.42 | > 35 µM | 25.4 µM | > 35 µM | 26.3 µM | 6.81 µM | 5.74 µM | 4.15 µM | > 35 µM
COc1cc(-c2cc(F)cc(C#N)c2)ccc1Oc1c(C(F)(F)F)ccn(Cc2n[nH]c(=O)n2C)c1=O | 16 µM | > 35 µM | > 35 µM | 10.4 | 14.2 µM | 113 µM | > 35 µM | 27.8 µM | 20.5 µM | 10.8 µM | 7.77 µM | > 35 µM
Cn1c(Cn2ccc(C(F)(F)F)c(Oc3ccc(-c4ccc(C#N)cc4)cc3)c2=O)n[nH]c1=O | 26.9 µM | > 35 µM | > 35 µM | 11.9 | 38.8 µM | 74.3 µM | > 35 µM | 15.9 µM | 23.7 µM | 6.23 µM | 7.68 µM | > 35 µM
COc1cc(-c2ccc(C#N)cc2)ccc1Oc1c(C(F)(F)F)ccn(Cc2n[nH]c(=O)n2C)c1=O | 13 µM | > 35 µM | > 35 µM | 17.6 | 21.3 µM | 142 µM | > 35 µM | 24.6 µM | 19.5 µM | 8.02 µM | 3.77 µM | > 35 µM
Cc1cc(-c2cccc(C#N)c2)ccc1Oc1c(C(F)(F)F)ccn(Cc2n[nH]c(=O)n2C)c1=O | 1.04 µM | > 35 µM | > 35 µM | 20.2 | 4.75 µM | 27.2 µM | > 35 µM | 4.73 µM | 1.81 µM | 1.35 µM | 1.38 µM | 6.69 µM
Cc1ccc(-c2cc(C#N)cc(Oc3c(C(F)(F)F)ccn(Cc4n[nH]c(=O)n4C)c3=O)c2)cc1 | 0.54 µM | > 35 µM | > 35 µM | > 1150 | 0.21 µM | > 267 µM | 1.66 µM | 1.53 µM | 0.15 µM | 0.23 µM | 0.097 µM | 5.13 µM
Cc1cc(Oc2c(C(F)(F)F)ccn(Cc3n[nH]c(=O)n3C)c2=O)ccc1-c1cc(F)cc(C#N)c1 | 8.02 µM | > 35 µM | > 35 µM | 29.4 | > 35 µM | 45.6 µM | > 35 µM | 3.67 µM | 2.54 µM | 1.55 µM | 3.84 µM | > 35 µM
Cn1c(Cn2ccc(C(F)(F)F)c(Oc3ccc(-c4cccc(C#N)c4)cc3F)c2=O)n[nH]c1=O | 7.38 µM | > 35 µM | > 35 µM | 9.6 | > 35 µM | 35.3 µM | > 35 µM | 5 µM | 5.41 µM | 3.68 µM | 4.93 µM | > 35 µM
Cc1cc(Oc2c(C(F)(F)F)ccn(Cc3n[nH]c(=O)n3C)c2=O)ccc1-c1ccc(C#N)cc1 | 8.35 µM | > 35 µM | > 35 µM | 24 | 8.83 µM | 52.1 µM | > 35 µM | 4.2 µM | 3.68 µM | 2.17 µM | 2.33 µM | > 35 µM
COc1cc(-c2cccc(C#N)c2)ccc1Oc1c(C(F)(F)F)ccn(Cc2n[nH]c(=O)n2C)c1=O | 12 µM | > 35 µM | > 35 µM | 14.8 | 13.4 µM | 126 µM | > 35 µM | 28.6 µM | 18.5 µM | 8.47 µM | 5.61 µM | > 35 µM
Cn1c(Cn2ccc(C(F)(F)F)c(Oc3ccc(-c4cc(F)cc(C#N)c4)cc3F)c2=O)n[nH]c1=O | 8.33 µM | 38.9 µM | > 35 µM | 20.6 | 38.8 µM | 69.2 µM | 41.5 µM | 5.98 µM | 4.02 µM | 3.36 µM | 3.72 µM | > 35 µM
Cn1c(Cn2ccc(C(F)(F)F)c(Oc3ccc(-c4cc(F)cc(C#N)c4)cc3)c2=O)n[nH]c1=O | 15.5 µM | > 35 µM | > 35 µM | 5.95 | 42.2 µM | 90.5 µM | > 35 µM | 8.1 µM | 13.9 µM | 15.2 µM | 9.01 µM | > 35 µM
Cn1c(Cn2ccc(C(F)(F)F)c(Oc3ccc(-c4cc(F)cc(C#N)c4)cc3Cl)c2=O)n[nH]c1=O | 3.29 µM | > 35 µM | > 35 µM | 5.71 | 7.14 µM | 19.3 µM | > 35 µM | 4.37 µM | 3.29 µM | 3.38 µM | 2.41 µM | > 35 µM
Cc1cc(Oc2c(C(F)(F)F)ccn(Cc3n[nH]c(=O)n3C)c2=O)ccc1-c1ccc(F)c(C#N)c1 | 2.33 µM | > 35 µM | > 35 µM | 70.6 | 6.91 µM | 42.5 µM | > 35 µM | 1.46 µM | 1.37 µM | 0.6 µM | 1.58 µM | > 35 µM
Cn1c(Cn2ccc(C(F)(F)F)c(Oc3ccc(-c4cccc(C#N)c4)c(F)c3)c2=O)n[nH]c1=O | 1.22 µM | > 35 µM | > 35 µM | 424 | 4.84 µM | 104 µM | 46.3 µM | 0.45 µM | 0.8 µM | 0.25 µM | 0.7 µM | 30.6 µM
Cn1c(Cn2ccc(C(F)(F)F)c(Oc3ccc(-c4cccc(C#N)c4)cc3)c2=O)n[nH]c1=O | 14.3 µM | > 35 µM | > 35 µM | 23.7 | 39.1 µM | 114 µM | > 35 µM | 14.4 µM | 12.2 µM | 4.79 µM | 10.8 µM | > 35 µM
